Measured values: patent US20100251435A1, “METHOD FOR GROWING SUGARCANE” (priority 2007, published 2010)

Experiments:
Type in all cases: in vivo
[1] = test system: sugar cane Variety RB 86-7515; assay: Greenhouse pot test, effect of formulated clothianidin on vigour; settings: carretels; result in words
Description: Greenhouse test with sugarcane buds growing in pots were conducted to study the effect of clothianidin equivalent to an application rate of 200 g ai. ha^−1 on “vigour”, evaluating tillers, plant height, leaf width and culm diameter. This trial was conducted on sugar cane Variety RB 86-7515.
1) carretel with one bud treated with clothianidin (200 g ai. ha^−1) 2) carretel with one bud treated with clothianidin (200 g ai. ha^−1)+15% v/v of polymer 3) stalk with 3 buds untreated 4) carretel with one bud untreated+15% v/v of polymer 5) carretel with one bud untreated 6) stalk with 3 buds treated with clothianidin (200 g ai. ha^−1).
Twenty 1 L pots were filled with 16 L of clay soil, 1.6 L of sand and 8 g of nitrogen, 28 g of phosphorus (P2O5) and 16 g of potassium (K2O). Six carretels of 4 cm length with one bud were planted in each pot (treatments 1, 2, 4 and 5). Two stalks with three buds were planted in each control pot (treatments 3 and 6) to simulate conventional planting. A layer of 3 cm of soil was used to cover the carretels. The carretels of treatments 1 and 2 were treated with 200 g ai.ha^−1 of clothianidin, by dipping the carretels in a slurry for 3 min. The stalks were treated simulating a furrow application at 100 L.ha^−1 of slurry. The pots were maintained with adequate moisture during the test. […]

[2] = test system: sugar cane Variety RB 86-7515; assay: Greenhouse pot test, effect of formulated fipronil on vigour; settings: result in words
Description: Greenhouse test with sugarcane buds growing in pots were conducted to study the effect of fipronil equivalent to an application rate of 200 g. ha^−1 on “vigour”, evaluating tillers, plant height, leaf width and culm diameter on sugar cane Variety RB 86-7515.
Twenty 1 L pots were filled with 16 L of clay soil, 1.6 L of sand and 8 g of nitrogen, 28 g of phosphorus (P2O5) and 16 g of potassium (K2O). Six carretels of 4 cm length with one bud were planted in each pot (treatments 1, 2, 4 and 5). Two stalks with three buds were planted in each control pot (treatments 3 and 6) to simulate conventional planting. A layer of 3 cm of soil was used to cover the carretels. The carretels of treatments 1 and 2 were treated with 200 g ai.ha^−1 of fipronil, by dipping the carretels in the slurry for 3 min, based on the uptake capacity of carretels. The stalks were treated simulating a furrow application at 100 L.ha^−1 of slurry. Experimental design adopted was randomized complete block with four replications. The pots were maintained with adequate moisture during the test. Evaluations of: plant height, leaf width, culm diameter and number of tillers were done at 20, 30 and 42 days after planting.

[3] = test system: sugar cane Variety RB 86 7515; assay: Greenhouse pot test, effect of formulated imidacloprid on vigour; settings: result in words
Description: 1) carretel with one bud treated with Imidacloprid (1200 g. ha^−1) 2) carretel with one bud treated with Imidacloprid (1200 g. ha^−1)+15% v/v of polymer 3) stalk with 3 buds untreated 4) carretel with one bud untreated 5) carretel with one bud untreated+15% v/v of polymer 6) stalk with 3 buds treated with Imidacloprid (1200 g. ha^−1).
Twenty 1 L pots were filled with 16 L of clay soil, 1.6 L of sand and 8 g of nitrogen, 28 g of phosphorus (P2O5) and 16 g of potassium (K2O). Six carretels of 4 cm length with one bud were planted in each pot (treatments 1, 2, 4 and 5). Two stalks with three buds were planted in each control pot (treatments 3 and 6) to simulate conventional planting. A layer of 3 cm of soil was used to cover the carretels. The carretels of treatments 1 and 2 were treated with 1200 g ai.ha^−1 of imidacloprid, by dipping the carretels in the slurry for 3 min, based on the uptake capacity of carretels. The stalks were treated simulating a furrow application at 100 L.ha^−1 of slurry. Experimental design adopted was randomized complete block with four replications. The pots were maintained with adequate moisture during the test. Evaluations of: plant height, leaf width, culm diameter and number of tillers were done at 20, 30 and 42 days after planting.

[4] = test system: sugar cane Variety RB 86-7515; assay: Greenhouse pot test, effect of formulated thiamethoxam on vigour; settings: result in words
Description: This trial was conducted on Variety RB 86-7515.

[5] = test system: sugar cane Variety RB 86-7515; assay: Greenhouse pot test, effect of formulated abamectin on vigour
Description: Greenhouse test with sugarcane buds growing in pots were conducted to study the effect of formulated abamectin regarding “vigour”, tillers, plant height, leaf width and culm diameter on sugar cane Variety RB 86-7515.
1) carretel with one bud treated with abamectin 2) carretel with one bud treated with abamectin+15% v/v of polymer 3) stalk with 3 buds untreated 4) carretel with one bud untreated 5) carretel with one bud untreated+15% v/v of polymer 6) stalk with 3 buds treated with abamectin.
Twenty 1 L pots were filled with 16 L of clay soil, 1.6 L of sand and 8 g of nitrogen, 28 g of phosphorus (P2O5) and 16 g of potassium (K2O). Six carretels of 4 cm length with only one bud were planted in each pot (treatments 1, 2, 4 and 5). Two stalks with three buds were planted in each control pot (treatments 3 and 6) to simulate conventional planting. A layer of 3 cm of soil was used to cover the carretels. The carretels of treatments 1, 2 were treated with 200 ml/ha of abamectin, by dipping the carretels in the slurry for 3 min, based on the uptake capacity of carretels. The stalks were treated simulating a furrow application at 100 L.ha^−1 of slurry. Experimental design adopted was randomized complete block with four replications. The pots were maintained with adequate moisture during the test. Evaluations of: plant height, leaf width, culm diameter and number of tillers were done at 20, 30 and 42 days after planting.

For `CN/C(=N\[N+](=O)[O-])NCc1cnc(Cl)s1` [Clothianidin, clothianidin], the “number of tillers in comparison with the corresponding control experiment (untreated, one-bud)” value [1] was “increased” and the “plant height in comparison with the corresponding control experiment (untreated, one-bud)” value [1] was “slight reduction”.
In the case of `N#Cc1nn(-c2c(Cl)cc(C(F)(F)F)cc2Cl)c(N)c1[S+]([O-])C(F)(F)F` (stereo not drawn) [Fipronil, fipronil], the “height of the resultant plants in comparison with the control” value [2] is reported as “decreased” and the “number of tillers in comparison with the control” value (shortened to “number … with the control”) [2] is reported as “increased”.
With `O=[N+]([O-])NC1=NCCN1Cc1ccc(Cl)nc1` [Imidacloprid, imidacloprid] the “number … with the control” value [3] was “increase” and the “size of the effect compared with the other active ingredients” value [3] was “less pronounced than with the other active ingredients”.
In the case of `CN1COCN(Cc2cnc(Cl)s2)/C1=N\[N+](=O)[O-]` [Thiamethoxam, thiamethoxam], the “number of tillers in comparison with the corresponding controls” value ([4]; carretels) is reported as “increased”, the “plant height in comparison with the corresponding controls” value ([4]; carretels) is reported as “reduced” and the “overall "quality" compared with the other treatments” value ([4]; practical assessment, not apparent from the listed parameters) is reported as “increase in “quality” greater than the other treatments”.
For abamectin, the Tillers ([5]; Carretel with one bud, 100 g ai/ha, dipped in slurry 3 min, 42 days after planting) was 14 number, the “number … with the control” value ([5]; result in words) was “increase” and the “plant height in comparison with the control” value ([5]; result in words) was “decrease”.
